Where two headings read alike, the source gives them in different places.
Columns and labels:
[1] = test system: HI650 (Lung Adenocarcinoma); assay: Cell viability analysis, lung cancer HI650; assay type: cell-based, human; conditions: Homo sapiens
[2] = test system: A549 (Lung Adenocarcinoma); assay: Cell viability analysis, lung cancer A549; assay type: cell-based, human; conditions: Homo sapiens
[3] = test system: AGS (Gastric Adenocarcinoma); assay: Cell viability analysis, gastric cancer AGS; assay type: cell-based, human; conditions: Homo sapiens
[4] = test system: MKN-45 (Gastric Adenocarcinoma); assay: Cell viability analysis, gastric cancer MKN-45; assay type: cell-based, human; conditions: Homo sapiens
[5] = test system: HepG2 (Hepatocellular Carcinoma); assay: Cell viability analysis, hepatic cancer HepG2; assay type: cell-based, human; conditions: Homo sapiens
[6] = test system: LoVo (Colorectal Adenocarcinoma); assay: Cell viability analysis, colon cancer LoVo; assay type: cell-based, human; conditions: Homo sapiens, LoVo
[7] = test system: A375 (Amelanotic Melanoma); assay: Cell viability analysis, skin cancer A375; assay type: cell-based, human; conditions: Homo sapiens
[8] = test system: HeLa (Cervix Adenocarcinoma); assay: Cell viability analysis, cervical cancer HeLa; assay type: cell-based, human; conditions: Homo sapiens, HeLa
[9] = test system: PC3 (p53−) (Prostate Adenocarcinoma); assay: Cell viability analysis, prostate cancer PC3; assay type: cell-based, human; conditions: Homo sapiens
[10] = test system: TSGH-8301 (Urinary Bladder Carcinoma); assay: Cell viability analysis, bladder cancer TSGH-8301; assay type: cell-based, human; conditions: Homo sapiens
[11] = test system: MCF7 (Mammary Gland, Adenocarcinoma); assay: Cell viability analysis, breast cancer MCF7; assay type: cell-based, human; conditions: Homo sapiens
[12] = test system: HL-60 (Acute Promyelocytic Leukemia); assay: Cell viability analysis, leukemia HL-60; assay type: cell-based, human; conditions: Homo sapiens
[13] = test system: HCT116 (p53+) (Colorectal Carcinoma); assay: cells; conditions: Homo sapiens, HCT-116, 72 h, read-out: cell viability (survival rate), HCT116
[14] = NCI-H1650, 72 h, drug 10 μM, 72 hours, WST-1, OD450 nm, read-out: cell viability (survival rate), H1650
[15] = A549, 72 h, drug 10 μM, 72 hours, WST-1, OD450 nm, read-out: cell viability (survival rate), A549
[16] = 72 h, drug 10 μM, 72 hours, WST-1, OD450 nm, read-out: cell viability (survival rate), AGS
[17] = MKN-45, 72 h, drug 10 μM, 72 hours, WST-1, OD450 nm, read-out: cell viability (survival rate), MKN-45
[18] = HepG2, 72 h, drug 10 μM, 72 hours, WST-1, OD450 nm, read-out: cell viability (survival rate), HepG2
[19] = 72 h, read-out: cell viability (survival rate), LoVo, drug 10 μM, 72 hours, WST-1, OD450 nm
[20] = A-375, 72 h, drug 10 μM, 72 hours, WST-1, OD450 nm, read-out: cell viability (survival rate), A375
[21] = 72 h, drug 10 μM, 72 hours, WST-1, OD450 nm, read-out: cell viability (survival rate), HeLa
[22] = 72 h, drug 10 μM, 72 hours, WST-1, OD450 nm, read-out: cell viability (survival rate), PC3
[23] = 72 h, drug 10 μM, 72 hours, WST-1, OD450 nm, read-out: cell viability (survival rate), TSGH
[24] = MCF7, 72 h, drug 10 μM, 72 hours, WST-1, OD450 nm, read-out: cell viability (survival rate), MCF7
[25] = HL-60, 72 h, drug 10 μM, 72 hours, WST-1, OD450 nm, read-out: cell viability (survival rate), HL-60
[26] = NCI-H1650, drug 10 μM, 72 hours, WST-1, OD450 nm, read-out: cell viability (survival rate), H1650
[27] = A549, drug 10 μM, 72 hours, WST-1, OD450 nm, read-out: cell viability (survival rate), A549
[28] = drug 10 μM, 72 hours, WST-1, OD450 nm, read-out: cell viability (survival rate), AGS
[29] = MKN-45, drug 10 μM, 72 hours, WST-1, OD450 nm, read-out: cell viability (survival rate), MKN-45
[30] = HepG2, drug 10 μM, 72 hours, WST-1, OD450 nm, read-out: cell viability (survival rate), HepG2
[31] = drug 10 μM, 72 hours, WST-1, OD450 nm, read-out: cell viability (survival rate), LoVo
[32] = A-375, drug 10 μM, 72 hours, WST-1, OD450 nm, read-out: cell viability (survival rate), A375
[33] = drug 10 μM, 72 hours, WST-1, OD450 nm, read-out: cell viability (survival rate), HeLa
[34] = drug 10 μM, 72 hours, WST-1, OD450 nm, read-out: cell viability (survival rate), PC3
[35] = drug 10 μM, 72 hours, WST-1, OD450 nm, read-out: cell viability (survival rate), TSGH
[36] = MCF7, drug 10 μM, 72 hours, WST-1, OD450 nm, read-out: cell viability (survival rate), MCF7
[37] = HL-60, drug 10 μM, 72 hours, WST-1, OD450 nm, read-out: cell viability (survival rate), HL-60
[38] = NCI-H1650, 72 h, read-out: cell viability (survival rate), H1650, drug 10 μM, 72 hours, WST-1, OD450 nm
[39] = A549, 72 h, read-out: cell viability (survival rate), A549, drug 10 μM, 72 hours, WST-1, OD450 nm
[40] = 72 h, read-out: cell viability (survival rate), AGS, drug 10 μM, 72 hours, WST-1, OD450 nm
[41] = MKN-45, 72 h, read-out: cell viability (survival rate), MKN-45, drug 10 μM, 72 hours, WST-1, OD450 nm
[42] = HepG2, 72 h, read-out: cell viability (survival rate), HepG2, drug 10 μM, 72 hours, WST-1, OD450 nm
[43] = A-375, 72 h, read-out: cell viability (survival rate), A375, drug 10 μM, 72 hours, WST-1, OD450 nm
[44] = 72 h, read-out: cell viability (survival rate), HeLa, drug 10 μM, 72 hours, WST-1, OD450 nm
[45] = 72 h, read-out: cell viability (survival rate), PC3, drug 10 μM, 72 hours, WST-1, OD450 nm
[46] = 72 h, read-out: cell viability (survival rate), TSGH, drug 10 μM, 72 hours, WST-1, OD450 nm
[47] = MCF7, 72 h, read-out: cell viability (survival rate), MCF7, drug 10 μM, 72 hours, WST-1, OD450 nm
[48] = HL-60, 72 h, read-out: cell viability (survival rate), HL-60, drug 10 μM, 72 hours, WST-1, OD450 nm

| Compound | viability at 10 µM [6, 19] [%] | viability at 10 µM [13] [%] | viability at 10 µM [1, 38] [%] | viability at 10 µM [2, 39] [%] | viability at 10 µM [3, 40] [%] | viability at 10 µM [4, 41] [%] | viability at 10 µM [5, 42] [%] | viability at 10 µM [7, 43] [%] | viability at 10 µM [8, 44] [%] | viability at 10 µM [9, 45] [%] | viability at 10 µM [10, 46] [%] | viability at 10 µM [11, 47] [%] | viability at 10 µM [12, 48] [%] | also measured |
| --- | --- | --- | --- | --- | --- | --- | --- | --- | --- | --- | --- | --- | --- | --- |
| COC(=O)N/N=C/c1c[n+]([O-])c2ccccc2[n+]1[O-] [Carbadox] | 54.4 | 72.8 | – | – | – | – | – | – | – | – | – | – | – | viability at 10 µM [1, 14]: 56.9%; viability at 10 µM [2, 15]: 24.8%; viability at 10 µM [3, 16]: 51.9%; viability at 10 µM [4, 17]: 104%; viability at 10 µM [5, 18]: 88.7%; viability at 10 µM [7, 20]: 52.4%; viability at 10 µM [8, 21]: 60%; viability at 10 µM [9, 22]: 52.5%; viability at 10 µM [10, 23]: 67.9%; viability at 10 µM [11, 24]: 34.6%; viability at 10 µM [12, 25]: 87% |
| C[N+](C)(C)CCO.[Cl-] [Choline Chloride] | – | 104 | – | – | – | – | – | – | – | – | – | – | – | viability at 10 µM ([1]; NCI-H1650, 72 h, read-out: cell viability (survival rate), H1650): 90.2%; viability at 10 µM ([2]; A549, 72 h, read-out: cell viability (survival rate), A549): 96%; viability at 10 µM ([3]; 72 h, read-out: cell viability (survival rate), AGS): 97.1%; viability at 10 µM ([4]; MKN-45, 72 h, read-out: cell viability (survival rate), MKN-45): 99.3%; viability at 10 µM ([5]; HepG2, 72 h, read-out: cell viability (survival rate), HepG2): 103%; viability at 10 µM ([6]; 72 h, read-out: cell viability (survival rate), LoVo): 76.7%; viability at 10 µM ([7]; A-375, 72 h, read-out: cell viability (survival rate), A375): 132%; viability at 10 µM ([8]; 72 h, read-out: cell viability (survival rate), HeLa): 103%; viability at 10 µM ([9]; 72 h, read-out: cell viability (survival rate), PC3): 106%; viability at 10 µM ([10]; 72 h, read-out: cell viability (survival rate), TSGH): 129%; viability at 10 µM ([11]; MCF7, 72 h, read-out: cell viability (survival rate), MCF7): 108%; viability at 10 µM ([12]; HL-60, 72 h, read-out: cell viability (survival rate), HL-60): 91.1% |
| O=C(O)c1ccccc1 [Benzoic acid] | – | 41.9 | – | – | – | – | – | – | – | – | – | – | – | viability at 10 µM [1, 26]: 57.2%; viability at 10 µM [2, 27]: 36.7%; viability at 10 µM [3, 28]: 53.1%; viability at 10 µM [4, 29]: 43.4%; viability at 10 µM [5, 30]: 79.1%; viability at 10 µM [6, 31]: 60.5%; viability at 10 µM [7, 32]: 37%; viability at 10 µM [8, 33]: 59.6%; viability at 10 µM [9, 34]: 36.8%; viability at 10 µM [10, 35]: 39.5%; viability at 10 µM [11, 36]: 31.4%; viability at 10 µM [12, 37]: 111% |
| Nc1c2ccccc2nc2ccccc12 [9-Aminoacridine] | 58.5 | 70.5 | 56.9 | 25.8 | 42.8 | 63.1 | 63.5 | 36.4 | 43.6 | 38.7 | 34.6 | 34.1 | 28.8 | – |
| C[C@@H]1CCC[C@H](C)N1NC(=O)c1ccc(Cl)c(S(N)(=O)=O)c1 [Clopamide] | 54.3 | 102 | 54 | 32.4 | 50.3 | 89.4 | 92.8 | 63.1 | 87.1 | 40.3 | 59 | 33.4 | 102 | – |
| O[C@@H]1CO[C@H]2[C@@H]1OC[C@@H]2O [Isosorbide] | 81.8 | 55.1 | 73.3 | 60.7 | 69 | 93.1 | 90.1 | 53.5 | 72.8 | 94.3 | 77.5 | 78.6 | 125 | – |
| CN(C)[C@@H]1C(O)=C(C(=O)NCN2CCCC2)C(=O)[C@@]2(O)C(O)=C3C(=O)c4c(O)cccc4[C@@](C)(O)[C@H]3C[C@@H]12 [Rolitetracycline] | 86.1 | 67.7 | 113 | 112 | 61.1 | 95.7 | 71.2 | 82.5 | 53.9 | 105 | 54.3 | 88.8 | 102 | – |
| CCc1oc2ccccc2c1C(=O)c1cc(Br)c(O)c(Br)c1 [Benzbromarone] | 105 | 128 | – | – | – | – | – | – | – | – | – | – | – | viability at 10 µM [1, 14]: 75.3%; viability at 10 µM [2, 15]: 51.5%; viability at 10 µM [3, 16]: 80.1%; viability at 10 µM [4, 17]: 86.2%; viability at 10 µM [5, 18]: 103%; viability at 10 µM [7, 20]: 99.2%; viability at 10 µM [8, 21]: 104%; viability at 10 µM [9, 22]: 80.9%; viability at 10 µM [10, 23]: 99.9%; viability at 10 µM [11, 24]: 52.8%; viability at 10 µM [12, 25]: 85.5% |
| COC(=O)C1=CO[C@@H](O[C@@H]2O[C@H](CO)[C@@H](O)[C@H](O)[C@H]2O)[C@@H]2C(CO)=CC[C@H]12 [Geniposide] | – | 73.9 | – | – | – | – | – | – | – | – | – | – | – | viability at 10 µM [1, 26]: 71.2%; viability at 10 µM [2, 27]: 63.7%; viability at 10 µM [3, 28]: 54.2%; viability at 10 µM [4, 29]: 45.6%; viability at 10 µM [5, 30]: 88.6%; viability at 10 µM [6, 31]: 74.1%; viability at 10 µM [7, 32]: 73.4%; viability at 10 µM [8, 33]: 81%; viability at 10 µM [9, 34]: 65.5%; viability at 10 µM [10, 35]: 53.1%; viability at 10 µM [11, 36]: 73.8%; viability at 10 µM [12, 37]: 120% |
| NC(CO)(CO)CO [Trometamol] | 68 | 90.4 | 95.4 | 79.5 | 78.1 | 88.3 | 96.7 | 126 | 90.9 | 97 | 102 | 98.8 | 91.3 | – |
